Test system: Respiratory Syncytial Virus
Assay: microbe, parasite or virus in culture
Assay type: cell-based
Settings: RSV-infected HeLa cells, MTT readout seven days after infection; −log of EC50 in molar units
Description: In vitro Screening for Activity against Respiratory Syncytial Virus.
The percent protection against cytopathology caused by viruses (antiviral activity or EC50) achieved by tested compounds and their cytotoxicity (CC50) are both calculated from dose-response curves. The selectivity of the antiviral effect is represented by the selectivity index (SI), calculated by dividing the CC50 (cytotoxic dose for 50% of the cells) by the EC50 (antiviral activity for 50% of the cells).
Automated tetrazolium-based colorimetric assays were used for determination of EC50 and CC50 of test compounds. Flat-bottom, 96-well plastic microtiter trays were filled with 180 μl of Eagle's Basal Medium, supplemented with 5% FCS (0% for FLU) and 20 mM Hepes buffer. Subsequently, stock solutions (7.8× final test concentration) of compounds were added in 45 μl volumes to a series of triplicate wells so as to allow simultaneous evaluation of their effects on virus- and mock-infected cells. Five five-fold dilutions were made directly in the microtiter trays using a robot system. Untreated virus controls, and HeLa cell controls were included in each test. Approximately 100 TCID50 of Respiratory Syncytial Virus was added to two of the three rows in a volume of 50 μl. The same volume of medium was added to the third row to measure the cytotoxicity of the compounds at the same concentrations as those used to measure the antiviral activity. After two hours of incubation, a suspension (4×10^5 cells/ml) of HeLa cells was added to all wells in a volume of 50 μl. The cultures were incubated at 37° C. in a 5% CO2 atmosphere. Seven days after infection the cytotoxicity and the antiviral activity was examined spectrophotometrically. To each well of the microtiter tray, 25 μl of a solution of MTT (3-(4,5-dimethylthiazol-2-yl)-2,5-diphenyltetrazolium bromide) was added. The trays were further incubated at 37° C. for 2 hours, after which the medium was removed from each cup. Solubilization of the formazan crystals was achieved by adding 100 μl 2-propanol. Complete dissolution of the formazan crystals were obtained after the trays have been placed on a plate shaker for 10 min. Finally, the absorbances were read in an eight-channel computer-controlled photometer (Multiskan MCC, Flow Laboratories) at two wavelengths (540 and 690 nm). The absorbance measured at 690 nm was automatically subtracted from the absorbance at 540 nm, so as to eliminate the effects of non-specific absorption.

Compound | Activity
Cc1ccc(O)c(Cn2c(NCCCN3CCOCC3)nc3ccc(CN(CCO)c4ccccc4)cc32)n1 [Compound 97] | 8.5
C#Cc1cccc(N(CCO)Cc2ccc3nc(NCCCN4CCOCC4)n(Cc4nc(C)ccc4O)c3c2)c1 [Compound 99] | 8.5
Cc1cccc(N(CCN(C)C)Cc2ccc3nc(NCCCN4CCOCC4)n(Cc4nc(C)ccc4O)c3c2)c1 [Compound 100] | 8.4
Cc1ccc(O)c(Cn2c(NCCCN3CCOCC3)nc3ccc(CN(CC(N)=O)c4ccccc4CCO)cc32)n1 [Compound 101] | 8.3
Cc1ccc(O)c(Cn2c(NCCCN3CCOCC3)nc3ccc(CN(CCN4CCOCC4)c4ccccc4CCO)cc32)n1 [Compound 103] | 8.2
Cc1ccc(O)c(Cn2c(NCCCN3CCOCC3)nc3ccc(CN(c4ccccc4)c4ccc(O)cc4)cc32)n1 [Compound 106] | 8.1
Cc1ccc(O)c(Cn2c(NCCCN3CCOCC3)nc3ccc(CN(CCO)c4ccccc4CCO)cc32)n1 [Compound 107] | 8.1
Cc1ccc(O)c(Cn2c(NCCCN3CCOCC3)nc3ccc(CNc4ccccc4CN)cc32)n1 [Compound 108] | 8
Cc1ccc(O)c(Cn2c(NCCCN3CCOCC3)nc3ccc(CN(c4ccccc4)c4cccc(O)c4)cc32)n1 [Compound 109] | 7.9
Cc1ccc(O)c(Cn2c(NCCCN3CCOCC3)nc3ccc(CN(CCO)c4ccccc4C)cc32)n1 [Compound 110] | 7.8
Cc1cccc(NCc2ccc3nc(NC4CCN(CCN5CCOCC5)CC4)n(Cc4nc(C)ccc4O)c3c2)c1 [Compound 164] | 7.5
Cc1ccc(O)c(Cn2c(NC3CCN(CCN4CCOCC4)CC3)nc3c(C)cccc32)n1 [Compound 166] | 6.8
Cc1ccc(O)c(Cn2c(NC3CCN(CCN4CCOCC4)CC3)nc3cc(/C=C/c4ccccc4)ccc32)n1 [Compound 167] | 6.7
Cc1ccc(O)c(Cn2c(NC3CCN(CCN4CCOCC4)CC3)nc3ccc(CO)cc32)n1 [Compound 168] | 6.5
Cc1ccc(O)c(Cn2c(NCCCN3C[C@@H](C)O[C@@H](C)C3)nc3ccc(CO)cc32)n1 [Compound 175] | 6.2
Cc1ccc(O)c(Cn2c(NCCCN3CC(C)OC(C)C3)nc3ccc(CO)cc32)n1 (stereo not shown) [Compound 177] | 5.7
Cc1cc(C)cc(N(CCCC(N)=O)Cc2ccc3nc(NCC(O)CN4CCOCC4)n(Cc4nc(C)ccc4O)c3c2)c1.Cl (stereo not shown) [Compound 178, 4-{(3,5-Dimethyl-phenyl)-[3-(3-hydroxy-6-methyl-pyridin-2-ylmethyl)-2-(2-hydroxy-3-morpholin-4-yl-propylamino)-3H-benzoimidazol-5-ylmethyl]-amino}-butyramide, HCl salt] | 9.6
Cc1ccc(O)c(Cn2c(NCCCN3CCSCC3)nc3ccc(CO)cc32)n1 [Compound 182] | 7.1

Same assay, conditions: human respiratory syncytial virus, 168 h; RSV-infected HeLa cells, MTT readout seven days after infection; −log of EC50 in molar units

Compound | EC50 [nM]
Cc1cc(C)cc(NCc2ccc3c(c2)nc(NCCCN2CCCOCC2)n3Cc2nc(C)ccc2O)c1 [Compound 174, 2-[5-[(3,5-Dimethyl-phenylamino)-methyl]-2-(3-[1,4]oxazepan-4-yl-propylamino)-benzoimidazol-1-ylmethyl]-6-methyl-pyridin-3-ol] | 2.51
Cc1cc(C)cc(NCc2ccc3nc(NCCCN4CCOC(CCO)C4)n(Cc4nc(C)ccc4O)c3c2)c1 (stereo not shown) [Compound 181, 2-(6-[(3,5-Dimethyl-phenylamino)-methyl]-2-{3-[2-(2-hydroxy-ethyl)-morpholin-4-yl]-propylamino}-benzoimidazol-1-ylmethyl)-6-methyl-pyridin-3-ol] | 6.31

Same assay, conditions: pEC50 (−log of EC50 when expressed in molar units), protection against RSV cytopathology

Compound | Activity
COc1ccc(C)nc1Cn1c(NCCCN2CCOCC2)nc2ccc(CN(CCCC(N)=O)c3cc(C)cc(C)c3)cc21 [Compound 210, -{(3,5-Dimethyl-phenyl)-[3-(3-methoxy-6-methyl-pyridin-2-ylmethyl)-2-(3-morpholin-4-yl-propylamino)-3H-benzoimidazol-5-ylmethyl]-amino}-butyramide] | 9
OCCCc1ccc(C(F)(F)F)cc1NCc1ccc2nc(NCCCN3CCOCC3)n(Cc3ncccc3O)c2c1 [Compound 216] | 8.7

From US7449463B2, “Morpholinyl containing benzimidazoles as inhibitors of respiratory syncytial virus replication” (Tibotec Pharmaceuticals Ltd., priority 2003, dated 2008)
